Here are results for five compounds from patent publication US7572903B1, “Method of regulation of bacterial persister status” (priority 2005, dated 2009).

Like-named read-outs stand apart in the source and are kept apart here. Bridge positions count the residues as written; N and C are the ends. Square brackets hold non-standard residues; d marks the D form. Peptide text beside a SMILES is read from it. * marks the point of attachment. Ileψ(thiazoline)Cys = CC[C@H](C)[C@H](N)C1=N[C@H](C(=O)*)CS1; dOrn = NCCC[C@@H](N)C(=O)O

Common to all, as to assay type: cell-based, Escherichia coli
Test [1] has as its system E. coli K-12 C600::mTn5gusA-pgfp21. Particulars: mid-log phase. The protocol: In the latter set of experiments reaction mixtures included nutrient broth (25% normal strength) in order to facilitate growth during the exposure. […] At various time intervals samples (0.1 mL) were removed and serially diluted either in sterile phosphate buffered saline (pH 7, 0.1M) or lecithin (2% w/v)—tween 80 (3% w/v) broth as a specific neutralizer of quaternary ammonium biocides (Wright, et al., J. App. Bacterial. 62:309-314, 1986). Samples of appropriate dilutions were plated, in triplicate, onto nutrient agar and colonies counted after 16 hour incubation at 37° C. Survival was expressed relative to untreated control suspensions.
(§1) When cells were required for culture and/or susceptibility determinations collections were made of discrete fractions of cells within the upper 1 and 5%, and the lower 1, 5 and 10% of fluorescence intensity. Control populations consisted of the entire population of cells having been passed through the cytometer and sorter. Cell sort rates of circa 10^3/sec were deployed enabling collection of circa 10^4-5 cfu within 10 minutes. Cell concentrations were adjusted from the cytometer count by dilution with fresh PBS. Suspensions of collected cells were used immediately for microbiological analysis.
Collections of poorly fluorescent cells from mid-log phase cultures were made and susceptibility re-determined towards tetradecylbenzalkonium chloride, and towards various other treatment agents.

Test [2] has the same test system. The test can be described thus: Time-dependent survival of FACS-sorted fractions exposed to tetradecylbenzalkonium chloride. The protocol: In the latter set of experiments reaction mixtures included nutrient broth (25% normal strength) in order to facilitate growth during the exposure. This was necessary in order to get adequate killing by β-lactam antibiotics. At various time intervals samples (0.1 mL) were removed and serially diluted either in sterile phosphate buffered saline (pH 7, 0.1M) or lecithin (2% w/v)—tween 80 (3% w/v) broth as a specific neutralizer of quaternary ammonium biocides (Wright, et al., J. App. Bacterial. 62:309-314, 1986). Samples of appropriate dilutions were plated, in triplicate, onto nutrient agar and colonies counted after 16 hour incubation at 37° C. Survival was expressed relative to untreated control suspensions.
as §1
The FACS vantage was also deployed to separate populations of cells, from stationary phase cultures, corresponding to the lower (1, 5 and 10%) fluorescence intensity cells and the upper (1 and 5%) fluorescence intensity cells (FIG. 1). These cells were immediately subjected to exposure to tetradecyl-benzalkonium chloride (3.68 μg/mL) for various times up to 20 minutes. After neutralization in lecithin-tween 80 broth the numbers of surviving cells was determined by plate count. In all instances the shapes of the survival curves were non-linear indicating an initial rapid phase of killing followed by a plateau phase. […] Survival beyond 10 minutes exposure therefore reflected the presence of non-susceptible cells.

The subject of test [3] is E. coli K-12 C600::mTn5gusA-pgfp21 intergenic knockouts. The test can be described thus: Susceptibility of putative intergenic knockouts towards cetrimide USP. An excerpt: Intergenic knockouts were made to E. coli K-12 C600::mTn5gusA-pgfp21 with respect to IG216, IG477, IG870, IG873, IG1602, IG1604 and IG1484 using the protocol described by Datsenko, et al. (Proceedings of the National Academy of Sciences of the United States of America 97, 6640-6645, 2000). Plasmid pKD3 was used as a template to generate PCR products with a selectable antibiotic resistance marker (chloramphenicol) and 40 nt homology extensions relating the genes flanking each targeted intergenic region. Modifications of the method included a 10-fold increase in the concentration of L-arabinose (10 mM) for induction of λ Red genes in the helper plasmid pKD46, and 50-fold increases in the amount of PCR product (500 ng) used to transform E. coli K-12 C600 containing pKD46. Further amendments to the method were associated with recovery of transformants following electroporation. […]
Putative intergenic knockouts were grown as liquid culture in nutrient broth, harvested at mid-exponential phase, washed in PBS as described in section 2.1 (a) and adjusted to 1×10^5 cfu/ml in PBS. […] The viability of cells in the antimicrobial and control tubes was monitored after 1 hour incubation at 37° C. at 200 rpm in an orbital shaker. […]

Test [4] concerns E. coli CC118 overexpression and suppression mutants. Description: Antimicrobial susceptibility of conditional overexpression and antisense suppression strains (cetrimide challenge). Particulars: relative to parental E. coli CC118, 9 μg/ml cetrimide 1 h. The protocol: Conditional overexpression and anti-sense suppression strains of E. coli (Table 14) were grown as liquid cultures in nutrient broth. Expression of target sense and antisense sequences was induced by addition of IPTG (Bioline), during early exponential phase, to a final concentration of 0.1 mM. Cells were grown until mid-late exponential (1.75 h after IPTG addition) or to stationary phase (14.5 h after ITPG addition), and harvested by centrifugation (10,000 x g, 10 min) at 4° C. The supernatants were decanted and the pellets suspended into equal volumes of PBS. The centrifugation and washing steps were repeated twice, after which the pellets were re-suspended in PBS to an optical density (OD470 nm) of 1.0, corresponding to approximately 1-2×10^8 cfu/ml mid-exponential or stationary phase cells.
Cells were exposed to 9 μg/ml cetrimide USP for 1 hr in PBS with final concentration of 5×10^7 cells/ml. Controls without the addition of the biocide containing the same concentration of cells and PBS were run in parallel. Following incubation samples (0.1 ml) were removed and serially diluted in lecithin (2% w/v)—tween 80 (3% w/v) broth as a specific neutralizer of quaternary ammonium biocides (Wright, et al., J. Appd. Bacteriol, 62, 309-314, 1986). Samples of appropriate dilutions were plated, in triplicate, onto nutrient agar and colonies counted after 16 h incubation at 37° C. Survival was expressed relative to untreated control suspensions that were similarly treated with IPTG. […] The susceptibility of the parental strain E. coli (CC118 towards cetrimide USP was investigated in the same experiments and was used as a reference to determine the effect of overexpression and antisense suppression of target sequences.

On to `NCC[C@H](O)C(=O)N[C@@H]1C[C@H](N)[C@@H](O[C@H]2O[C@H](CN)[C@@H](O)[C@H](O)[C@H]2O)[C@H](O)[C@H]1O[C@H]1O[C@H](CO)[C@@H](O)[C@H](N)[C@H]1O` [Amikacin, amikacin], for which the “percentage survival relative to untreated controls” value is 68 (17) % in test [1] (0-5% FI fraction, amikacin 0.75 μg/ml, 1 hour, SD in parenthesis); 32 (0) % in test [1] (95-100% FI fraction, amikacin 0.75 μg/ml, 1 hour, SD in parenthesis); 39 (3.0) % in test [1] (Control 0-100% fluorescence fraction, amikacin 0.75 μg/ml, 1 hour, SD of triplicate in parenthesis).
Take `CC[C@H](C)[C@H](N)C1=N[C@H](C(=O)N[C@@H](CC(C)C)C(=O)N[C@H](CCC(=O)O)C(=O)N[C@H](C(=O)N[C@H]2CCCCNC(=O)[C@H](CC(N)=O)NC(=O)[C@@H](CC(=O)O)NC(=O)[C@H](Cc3cnc[nH]3)NC(=O)[C@@H](Cc3ccccc3)NC(=O)[C@H]([C@@H](C)CC)NC(=O)[C@@H](CCCN)NC2=O)[C@@H](C)CC)CS1` [Bacitracin, bacitracin] ({Ileψ(thiazoline)Cys}-L[dE]IK[dOrn]I[dF]H[dD]N; lactam 4-C): the “percentage survival relative to untreated controls” value in test [1] (0-5% FI fraction, bacitracin 0.7 mg/ml, 40 min, SD in parenthesis) is listed as 83 (1.5) %; in test [1] (95-100% FI fraction, bacitracin 0.7 mg/ml, 40 min, SD in parenthesis) it was 34 (4.6) %; in test [1] (Control 0-100% fluorescence fraction, bacitracin 0.7 mg/ml, 40 min, SD in parenthesis), 57 (8.5) %.
For the compound `O=C(O)c1cn(C2CC2)c2cc(N3CCNCC3)c(F)cc2c1=O` [Ciprofloxacin, ciprofloxacin], the “percentage survival relative to untreated controls” value in test [1] (0-5% FI fraction, ciprofloxacin 0.05 μg/ml, 1 hour, SD in parenthesis) is reported as 44 (2.0) %; in test [1] (95-100% FI fraction, ciprofloxacin 0.05 μg/ml, 1 hour, SD in parenthesis) it was 35 (3.6) %; in test [1] (Control 0-100% fluorescence fraction, ciprofloxacin 0.05 μg/ml, 1 hour, SD in parenthesis), 40 (0) %.
For Tetradecylbenzalkonium chloride, the “proportion of persister cells in the cell fraction” value in test [2] (least intensely fluorescent cell fraction (1%), stationary phase, 3.68 μg/mL, exposure up to 20 minutes) is over 80%. Also, the survival of cells entry in test [2] (most fluorescently intense cells, stationary phase, 3.68 μg/mL, after 1 minute exposure) is reported as “eradicated beyond detection”. For the same compound, the “proportion of persisters in mid-log phase compared with stationary phase” value in test [2] (poorly fluorescent cells from mid-log phase cultures) was “substantially reduced”.
As to cetrimide [Cetrimide USP], the “percentage survival relative to untreated controls” value in test [1] (0-5% FI fraction, cetrimide USP 0.5 μg/ml, 1 hour, SD in parenthesis) was 22 (3.7) %; in test [1] (95-100% FI fraction, cetrimide USP 0.5 μg/ml, 1 hour, SD in parenthesis), 2.5 (0.97) %; in test [1] (Control 0-100% fluorescence fraction, cetrimide USP 0.5 μg/ml, 1 hour, SD in parenthesis) it was 18 (3.4) %. Also, the “susceptibility of intergenic knockout clones compared with controls” value in test [3] (IG216, IG873, IG1484 and IG1602 knockouts, at both the lower and higher treatment level) was “profoundly changed”; in test [3] (all developed clones (IG216, IG477, IG870, IG873, IG1602, IG1604, IG1484), 0.6 and 2.0 μg/ml, 1 hour), “substantially reduced”. The “Fold Change in persister fraction (fold increase)” value in test [4] (strain lit (+), exponential phase, IPTG 0.1 mM 1.75 h) was 3.05 fold; in test [4] (strain lit (−), exponential phase, IPTG 0.1 mM 1.75 h) it was 1.31 fold; in test [4] (strain mcrA (+), exponential phase, IPTG 0.1 mM 1.75 h), 2.82 fold; in test [4] (strain pin (+), exponential phase, IPTG 0.1 mM 1.75 h), 10.38 fold; in test [4] (strain pin (−), exponential phase, IPTG 0.1 mM 1.75 h), 18.98 fold; in test [4] (strain ykgK (+), exponential phase, IPTG 0.1 mM 1.75 h), 22.85 fold. The “Fold Change in persister fraction (fold decrease)” value in test [4] (strain lit (−), stationary phase, IPTG 0.1 mM 14.5 h) was 4.08 fold decrease; in test [4] (strain yagL (+), exponential phase, IPTG 0.1 mM 1.75 h) it was 1.01 fold; in test [4] (strain ykgK (−), exponential phase, IPTG 0.1 mM 1.75 h), 5.35 fold; in test [4] (strain ykgM (+), exponential phase, IPTG 0.1 mM 1.75 h) it was 1.65 fold; in test [4] (strain ykgM (−), exponential phase, IPTG 0.1 mM 1.75 h), 1.83 fold. The “Fold Change in persister fraction” value is on record as “No persisters detected” in test [4] (strain pin (−), stationary phase, IPTG 0.1 mM 14.5 h); “No persisters detected” in test [4] (strain ykgK (−), stationary phase, IPTG 0.1 mM 14.5 h); “No persisters detected” in test [4] (strain ykgM (−), stationary phase, IPTG 0.1 mM 14.5 h).
